In patent publication US20240299504A1, “COMPOSITIONS AND METHODS FOR TREATING ALZHEIMERS DISEASE” (priority 2023, published 2024):

Experiments:
osteocalcin = assay: Serum osteocalcin ELISA (bone formation marker); type: in vivo, mouse; conditions: 6-MO female 5×FAD vs control mice; 50 μg/Kg s.c. intermittent
Protocol: (§1) Parathyroid hormone (human) was purchased from TOCRIS Bioscience (Cat #3011/1, Abingdon, United Kingdom). WT or 5×FAD mice (both male and female) were treated with PTH1-34 intermittently [once daily injection of hPTH1-34 (50 μg/Kg) or vehicle (0.9% sodium chloride) (as a control) by subcutaneous injection, starting at 2-MO, 5 days per week] as described previously. Mice were then subjected to behavioral tests and sacrificed for examinations of their bone and brain phenotypes at the indicated ages.
Submandibular blood collection was performed in anesthetized mice. A swift lancing motion is used to puncture the vessel. Blood sample (up to 200 μl) was collected with a pipette or other collection tube, allowed to stand at room temperature for 30 min and centrifuged for 15 min at 3000 rpm. Supernatant serum was aliquot and frozen at −80° C. until use. Mouse serum levels of osteocalcin (a marker for bone formation), PYD (pyridinoline, a marker for bone resorption), and PTH were measured using mouse osteocalcin Elisa kit (QUIDEL Corporation), METRA Serum PYD EIA kit (QUIDEL Corporation, San Diego, CA, USA), and mouse PTH Elisa kit (MyBioSource), respectively, following the manufacturers' instruction.

5×FAD mice [1] = assay: Novel object recognition (NOR); type: in vivo, mouse
Protocol: as §1
(§2) Mice (female and male) at the age of ˜5-MO were subjected to behavioral studies. The experimental procedures are described as previously. […] The total arm entries and the number of tri-ads were recorded to quantify the percentage of spontaneous alternation. For novel object recognition (NOR), which tests mouse's memory ability for a novel object, 20 min were recorded to analyze the time to explore the old object vs. the new object of each mouse. […] During test trials, one of the objects was replaced with a new object and mice were free to explore for another 20 min, and the time spent exploring the new object and the old object was recorded. The discrimination index is quantified as the novelty object preference, which is the time spent exploring the new object minus the time exploring the old object over the total exploration time.

5×FAD mice [2] = assay: Y-maze test; type: in vivo, mouse; conditions: 5×FAD female mice ~5-MO vs Veh-treated 5×FAD female
Protocol: as §1, §2

Aβ plaques = assay: Aβ deposition assay (Thioflavin S staining); type: in vivo, mouse; conditions: vs Veh
Protocol: as §1
Thioflavin S (Thio-S) staining was used for Aβ deposition assay as previously described with minimal modification. Beginning with the lateral-most section in the ROI (region of interest), every sixth tissue section of six consecutive sections was used. […] The brain slices were then washed with a series of graded EtOH in the dark as follows: 95% EtOH for 2 min, 80% EtOH for 2 min, and 70% EtOH for 2 min. Finally, the brain slices were washed with PBS 3 times in the dark and transferred to slides for sealing with an antifade fluorescence mounting medium. All the brain slices were captured on a Laser confocal microscopy. The images were adjusted to the same threshold to increase signal-to-noise ratio. Plaques >5.5 μm^2 were quantified. Four sections per mouse were quantified. The layers or sub-regions of cortex and hippocampus in each image were outlined and analyzed with the National Institutes of Health ImageJ software.

IBA1+ microglia = assay: Co-immunostaining ThioS/IBA1/LPL, microglial cells; type: in vivo, mouse; conditions: 6-MO 5×FAD female mice vs Veh
Protocol: as §1
DAPI was used for nucleus staining.

5×FAD astrocytes = assay: Senescence markers in cultured astrocytes (RT-PCR, SA-β-gal staining); type: cell-based, mouse; conditions: cultured 5×FAD astrocytes, 100 ng/ml, 24 h
Protocol: Total RNA was extracted from cortex, hippocampus, or cultured astrocytes using a TRizol reagent (Invitrogen, cat #15596-026, Carlsbad, CA, USA) as previously described. Purified RNA (1-5 μg) was used for cDNA synthesis with the Revert Aid First Strand cDNA Synthesis Kit (Thermo Scientific, cat #K1621, Waltham, MA, USA). The cDNA products were subjected to subsequent quantitative PCR (qPCR) using the QuantiFast SYBR Green PCR Kit (QIA-GEN, cat #204057, Hilden, Germany) with a qPCR System (StepOne Plus). Each sample was repeated at least 3 times, and the mRNA level was normalized to GAPDH using the 2^−ΔΔCt method.
Astrocyte culture was performed according to the standard protocol with some modifications as described in previous literature. In brief, the cerebral cortex and hippocampus of postnatal day 3 (P3) female pups were dissected under a stereomicroscope and placed in ice-cold calcium- and magnesium-free HBSS (Hanks Balanced Salt Solution). The tissues were digested with 2.5% trypsin-EDTA, 3 ml for each mouse, at 37° C. for 20 min with shaking slightly every 5 min. […]
SA-β-gal staining of cultured astrocytes was performed as previously reported. […] The SA-β-gal intensity was quantified by the NIH ImageJ software.

Structure (SMILES): CC[C@H](C)[C@H](NC(=O)[C@H](CCC(=O)O)NC(=O)[C@H](CO)NC(=O)[C@@H](NC(=O)[C@@H](N)CO)C(C)C)C(=O)N[C@@H](CCC(N)=O)C(=O)N[C@@H](CC(C)C)C(=O)N[C@@H](CCSC)C(=O)N[C@@H](Cc1cnc[nH]1)C(=O)N[C@@H](CC(N)=O)C(=O)N[C@@H](CC(C)C)C(=O)NCC(=O)N[C@@H](CCCCN)C(=O)N[C@@H](Cc1cnc[nH]1)C(=O)N[C@@H](CC(C)C)C(=O)N[C@@H](CC(N)=O)C(=O)N[C@@H](CO)C(=O)N[C@@H](CCSC)C(=O)N[C@@H](CCC(=O)O)C(=O)N[C@@H](CCCN=C(N)N)C(=O)N[C@H](C(=O)N[C@@H](CCC(=O)O)C(=O)N[C@@H](Cc1c[nH]c2ccccc12)C(=O)N[C@@H](CC(C)C)C(=O)N[C@@H](CCCN=C(N)N)C(=O)N[C@@H](CCCCN)C(=O)N[C@@H](CCCCN)C(=O)N[C@@H](CC(C)C)C(=O)N[C@@H](CCC(N)=O)C(=O)N[C@@H](CC(=O)O)C(=O)N[C@H](C(=O)N[C@@H](Cc1cnc[nH]1)C(=O)N[C@@H](CC(N)=O)C(=O)N[C@@H](Cc1ccccc1)C(=O)O)C(C)C)C(C)C [PTH1-34]
- serum osteocalcin levels (osteocalcin): increased serum osteocalcin levels more in 5×FAD mice than that in control mice
- NOR, recognition of the novel object (discrimination index) (5×FAD mice [1]; 5×FAD female mice ~5-MO vs 5×FAD Veh, 50 μg/Kg s.c. intermittent): improved recognition of the novel object
- NOR, cognitive function in novel object recognition (5×FAD mice [1]; 5×FAD male mice ~5-MO vs Veh): Little to no improvement
- Y maze total arm entries (5×FAD mice [2]): comparable arm entries to those of Veh-treated 5×FAD female mice
- reduction in plaque density (Aβ plaques; female 5×FAD cortex): ~46%
- reduction in plaque size (Aβ plaques; female 5×FAD cortex): ~34%
- reduction in plaque density (Aβ plaques; female 5×FAD hippocampus): ~59%
- reduction in plaque size (Aβ plaques; female 5×FAD hippocampus): ~56%
- reduction in plaque density (Aβ plaques; male 5×FAD cortex): ~32%
- reduction in plaque size (Aβ plaques; male 5×FAD cortex): ~28%
- reduction in plaque density (Aβ plaques; male 5×FAD hippocampus): ~50%
- reduction in plaque size (Aβ plaques; male 5×FAD hippocampus): ~23%
- Aβ associated LPL+IBA1+ microglial cells (DAM) (IBA1+ microglia): little to no difference
- IBA1+ cell density and fluorescence intensity in regions without Aβ plaques (IBA1+ microglia): comparable
- ThioS+ Aβ plaque associated IBA1 fluorescence (IBA1+ microglia): unchanged
- overall IBA1 fluorescence intensity (IBA1+ microglia; cortex and hippocampus): lower in PTH1-34 treated 5×FAD cortex and hippocampus than that of Veh controls
- SA-β-gal+ astrocytes (5×FAD astrocytes): attenuated
- p53 expression (RT-PCR) (5×FAD astrocytes): diminished
